Molecules are shown by their SMILES. Where “and” joins values, the source holds several entries; their conditions need not be identical. Equal entries are not always repeated.

For one test, the system named is UACC-62. Nature of the test: NCI one-dose screen. Conditions: Melanoma UACC-62, 10 µM single dose. In kind it is cell-based, human. In a few lines:
(§1)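 At 10 μM, a single concentration, compounds were evaluated for antiproliferative effect in the NCI 60-line screen, with growth expressed relative to untreated control cells.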

In the next test the test system is HOP-92. As to the kind of experiment: NCI one-dose screen. Particulars: NSCLC HOP-92, 10 µM single dose. The test is classed as cell-based, human. In a few lines:
as §1

Another test has as its system NCI-H23. As to the kind of experiment: NCI one-dose screen. In kind it is cell-based, human. Particulars: NSCLC NCI-H23, 10 µM single dose. The gist of the method: (§2)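 Single 10 μM dose, NCI-60 panel; read-out = % growth vs untreated controls → % inhibition.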
The subject of another test is K-562. As to the kind of experiment: NCI one-dose screen. The test is classed as cell-based, human. Conditions: Leukemia K-562, 10 µM single dose. In a few lines:
as §1

In another test the test system is BT-549. As to the kind of experiment: NCI one-dose screen. In kind it is cell-based, human. Particulars: Breast BT-549, 10 µM single dose. In a few lines:
as §1

The next test deals with T-47D. Nature of the test: NCI one-dose screen. In kind it is cell-based, human. Conditions: Breast T-47D, 10 µM single dose. The gist of the method:
as §1

A further test relates to SK-MEL-28. Nature of the test: NCI one-dose screen. In kind it is cell-based, human. Conditions: Melanoma SK-MEL-28, 10 µM single dose. The gist of the method: (§3)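 One concentration (10 μM) applied to each line of the full NCI-60 panel; percent growth compared against untreated cells.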
In the next test the test system is PC-3. As to the kind of experiment: NCI one-dose screen. In kind it is cell-based, human. Conditions: Prostate PC-3, 10 µM single dose. In a few lines:
as §3

Another test relates to HCT-15. Nature of the test: NCI one-dose screen. The test is classed as cell-based, human. Conditions: Colon HCT-15, 10 µM single dose. The gist of the method: as §1
The subject of a further test is MOLT-4. Nature of the test: NCI one-dose screen. In kind it is cell-based, human. Particulars: Leukemia MOLT-4, 10 µM single dose. In a few lines:
as §2

The subject of the next test is OVCAR-3. Nature of the test: NCI one-dose screen. Particulars: Ovarian OVCAR-3, 10 µM single dose. The test is classed as cell-based, human. The gist of the method: as §1
The next test relates to KM12. As to the kind of experiment: NCI one-dose screen. The test is classed as cell-based, human. Particulars: Colon KM12, 10 µM single dose. The gist of the method: as §2
Another test addresses T1, HDAC6 (Homo sapiens, UniProt Q9UBN7).
T1 construct: purchased BPS Bioscience 50006
T1 sequence (Q9UBN7 1-1215): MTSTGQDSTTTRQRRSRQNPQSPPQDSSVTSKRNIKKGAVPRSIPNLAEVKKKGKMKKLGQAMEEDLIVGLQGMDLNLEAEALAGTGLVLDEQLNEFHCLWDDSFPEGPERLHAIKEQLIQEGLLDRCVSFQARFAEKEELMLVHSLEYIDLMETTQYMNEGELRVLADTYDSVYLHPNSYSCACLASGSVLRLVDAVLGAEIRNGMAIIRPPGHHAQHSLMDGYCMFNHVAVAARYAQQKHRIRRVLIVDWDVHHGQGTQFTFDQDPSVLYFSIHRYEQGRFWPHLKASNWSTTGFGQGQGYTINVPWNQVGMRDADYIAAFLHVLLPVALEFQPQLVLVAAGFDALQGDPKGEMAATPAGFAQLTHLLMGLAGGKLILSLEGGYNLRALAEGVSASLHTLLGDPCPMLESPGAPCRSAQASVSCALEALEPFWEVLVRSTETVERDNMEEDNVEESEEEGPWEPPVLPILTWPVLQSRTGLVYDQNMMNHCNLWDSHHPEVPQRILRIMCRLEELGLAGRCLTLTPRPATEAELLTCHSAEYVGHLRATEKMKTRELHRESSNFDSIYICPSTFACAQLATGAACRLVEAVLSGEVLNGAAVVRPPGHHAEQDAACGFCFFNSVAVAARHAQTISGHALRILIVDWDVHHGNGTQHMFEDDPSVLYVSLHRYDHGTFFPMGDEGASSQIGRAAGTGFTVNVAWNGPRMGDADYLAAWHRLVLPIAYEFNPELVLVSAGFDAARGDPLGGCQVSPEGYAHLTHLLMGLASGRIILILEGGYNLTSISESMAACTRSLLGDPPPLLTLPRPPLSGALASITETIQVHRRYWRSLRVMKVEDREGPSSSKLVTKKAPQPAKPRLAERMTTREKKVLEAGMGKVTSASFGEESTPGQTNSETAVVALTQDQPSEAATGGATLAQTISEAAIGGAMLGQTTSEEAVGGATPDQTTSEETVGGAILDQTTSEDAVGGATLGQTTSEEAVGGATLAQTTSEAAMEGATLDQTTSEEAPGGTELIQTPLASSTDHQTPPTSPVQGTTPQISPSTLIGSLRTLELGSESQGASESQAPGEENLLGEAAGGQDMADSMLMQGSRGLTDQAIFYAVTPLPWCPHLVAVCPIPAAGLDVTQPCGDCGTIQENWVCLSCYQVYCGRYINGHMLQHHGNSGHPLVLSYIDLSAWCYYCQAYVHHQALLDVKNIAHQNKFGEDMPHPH
As to the kind of experiment: In vitro HDAC6 inhibitory assay (BPS Bioscience, fluorogenic). In kind it is biochemical. Conditions: 10 µM. As for the experimental part:
(1 picture or pasted object on this page, not shown here)
HDAC activity assays were performed in duplicates at each concentration. The

Another test deals with full NCI 60 cell panel. As to the kind of experiment: NCI one-dose screen, whole panel statistics. The test is classed as cell-based, human. Particulars: 1.00E-5 Molar; for Mean Growth Percent: mean over panel. The procedure: All of the synthesised structures were selected and submitted to NCI based on computer modelling techniques and the degree of diversity of structures for the evaluation of their antiproliferative activity. The 20 synthesised compounds were selected with their respective NCI codes [NCS D-820157- NCS D-820176] for the inhibition percent assay at an initial single dose of 10 μM on the full NCI 60 cell panel, where the mean graph of the percent growth for all compounds on the full NCI cell panel is evaluated, compared to the untreated control cells (Supplementary Material). In vitro cell line inhibition % of all synthesised compounds is represented in (Table 1 of Supplementary Material).
All of the synthesised compounds (20) were submitted to NCI and selected for in vitro anticancer assay against a panel of 60 cancer cell lines. The methodology of assay and calculations is as reported.

As for `Cc1c(C(=O)NO)sc2ncnc(Nc3ccc(NC(=S)Nc4ccccc4)cc3)c12` [Compound 7d, 1–(4-(6-(hydroxycarbamoyl)-5-methylthieno[2,3-d]pyrimidin-4-ylamino)phenyl)-3-phenylthiourea], the “Growth Percent” value in the test with UACC-62 is 94.9% and 94.97%; in the test on HOP-92, 114.8% and 114.88%; in the test with NCI-H23, 96.5% and 96.54%; in the test on K-562, 103.0% and 103.01%; in the test with BT-549 it was 106.3% and 106.33%; in the test on T-47D, 112.9% and 112.91%. Besides, the “Growth Percent” value is 105.0% and 105.07% in the test with SK-MEL-28; 105.6% and 105.68% with PC-3; 95.3% and 95.39% in the test on HCT-15; 111.3% and 111.35% in the test on MOLT-4; 111.0% and 111.03% in the test on OVCAR-3; 102.1% and 102.11% with KM12. Moreover, at 10 µM the inhibition against HDAC6 was 6%. The “Delta (one dose mean graph)” value in the test with full NCI 60 cell panel is listed as 17.28%. The “Range (one dose mean graph)” value in the test with full NCI 60 cell panel worked out at 35.68%. In the test on full NCI 60 cell panel, the “Mean Growth Percent” value is 102.34%.

`Cc1c(C(=O)NCCC(=O)NO)sc2ncnc(Nc3ccc(NC(=O)Nc4ccccc4)cc3)c12` [Compound 11a, 1–(4-(6-((3-(hydroxyamino)-3-oxopropyl)carbamoyl)-5-methylthieno[2,3-d]pyrimidin-4-ylamino)phenyl)-3-phenylurea]: the “Growth Percent” value is 98.7% and 98.79% in the test with UACC-62; 106.7% and 106.72% in the test on HOP-92; 96.1% and 96.12% in the test with NCI-H23; 108.3% and 108.34% in the test with K-562; 104.9% in the test with BT-549; 107.7% and 107.73% in the test on T-47D. Further, the “Growth Percent” value was 105.1% and 105.11% with SK-MEL-28; 101.7% and 101.73% in the test on PC-3; 95.7% and 95.77% with HCT-15; 110.5% and 110.52% in the test on MOLT-4; 102.6% and 102.61% in the test with OVCAR-3; 103.2% and 103.23% in the test with KM12. Moreover, at HDAC6, the “Mean % inhibition HDAC6” value came to 7%. Besides, on HDAC6, 10 µM produced 5% inhibition. In addition, the “Delta (one dose mean graph)” value in the test with full NCI 60 cell panel is given as 21.26%. Further, in the test on full NCI 60 cell panel, the “Range (one dose mean graph)” value amounted to 44.07%. Also, the “Mean Growth Percent” value in the test on full NCI 60 cell panel was found to be 100.98%.

Turning to `COc1cccc(NC(=O)Nc2ccc(Nc3ncnc4sc(C(=O)NCCC(=O)NO)c(C)c34)cc2)c1` [Compound 11b, 1–(4-(6-((3-(hydroxyamino)-3-oxopropyl)carbamoyl)-5-methylthieno[2,3-d]pyrimidin-4-ylamino)phenyl)-3–(3-methoxyphenyl)urea], the “Growth Percent” value in the test on UACC-62 is 95.3% and 95.33%; with HOP-92, 119.1% and 119.18%; in the test on NCI-H23, 96.6% and 96.67%; with K-562 it was 115.1% and 115.17%; in the test with BT-549 it was 96.1% and 96.14%; with T-47D, 100.1%. In addition, the “Growth Percent” value in the test on SK-MEL-28 is 105.3%; with PC-3, 102.0% and 102.03%; with HCT-15 it was 99.0% and 99.06%; in the test with MOLT-4 it was 107.2% and 107.22%; in the test on OVCAR-3, 108.9%; in the test on KM12, 99.5% and 99.57%. The “Mean % inhibition HDAC6” value on HDAC6 came to 13%. Further, in the test on full NCI 60 cell panel, the “Delta (one dose mean graph)” value is reported as 17.95%. Further, the “Range (one dose mean graph)” value in the test with full NCI 60 cell panel is 40.74%. For the same compound, in the test with full NCI 60 cell panel, the “Mean Growth Percent” value came to 100.99%.

Regarding `Cc1c(C(=O)NCCC(=O)NO)sc2ncnc(Nc3ccc(NC(=O)Nc4cccc(C(F)(F)F)c4)cc3)c12` [Compound 11c, 1–(4-(6-((3-(hydroxyamino)-3-oxopropyl)carbamoyl)-5-methylthieno[2,3-d]pyrimidin-4-ylamino)phenyl)-3–(3-(trifluoromethyl)phenyl)urea], the “Growth Percent” value with UACC-62 is 99.6% and 99.62%; with HOP-92 it was 115.4%; in the test on NCI-H23 it was 100.0% and 100.01%; in the test with K-562, 103.6% and 103.67%; in the test on BT-549, 137.1% and 137.18%; with T-47D, 101.4% and 101.45%. Also, the “Growth Percent” value in the test on SK-MEL-28 was 109.7% and 109.72%; in the test with PC-3 it was 100.2% and 100.24%; in the test on HCT-15, 101.2% and 101.22%; with MOLT-4 it was 105.7% and 105.79%; in the test on OVCAR-3 it was 111.6%; in the test with KM12 it was 100.1% and 100.15%. In addition, the inhibition at 10 µM against HDAC6 was determined as 8%. Further, the “Delta (one dose mean graph)” value with full NCI 60 cell panel is reported as 23.75%. Moreover, the “Range (one dose mean graph)” value in the test on full NCI 60 cell panel came to 61.62%. Also, in the test with full NCI 60 cell panel, the “Mean Growth Percent” value is reported as 102.55%.

As to `Cc1c(C(=O)NCCCC(=O)NO)sc2ncnc(Nc3ccc(NC(=O)Nc4ccccc4)cc3)c12` [Compound 12a, 1–(4-(6-((4-(hydroxyamino)-4-oxobutyl)carbamoyl)-5-methylthieno[2,3-d]pyrimidin-4-ylamino)phenyl)-3-phenylurea], the “Growth Percent” value with UACC-62 is 99.1% and 99.19%; with HOP-92 it was 121.7% and 121.76%; with NCI-H23 it was 89.2% and 89.25%; in the test on K-562 it was 97.8% and 97.83%; in the test on BT-549, 105.0% and 105.06%; in the test with T-47D, 103.9% and 103.98%. In addition, the “Growth Percent” value with SK-MEL-28 is 109.4% and 109.43%; in the test with PC-3 it was 98.9% and 98.99%; with HCT-15 it was 100.2%; in the test with MOLT-4, 102.6% and 102.68%; with OVCAR-3, 107.1% and 107.19%; in the test on KM12, 99.6% and 99.61%. For the same compound, at 10 µM the inhibition on HDAC6 was 7%. Also, in the test on full NCI 60 cell panel, the “Delta (one dose mean graph)” value was determined as 25.38%. The “Range (one dose mean graph)” value in the test with full NCI 60 cell panel turned out to be 46.43%. In the test on full NCI 60 cell panel, the “Mean Growth Percent” value was 100.71%.

(Values after publication PMC8253220, “Molecular design, synthesis and in vitro biological evaluation of thienopyrimidine–hydroxamic acids as chimeric kinase HDAC inhibitors: a challenging approach to combat cancer” (Journal of Enzyme Inhibition and Medicinal Chemistry, 2021).)
